This is an account of results in patent US10487093B2, “Heterocyclic compounds, in particular 2-oxo-4,4,5,5,6,6,7,7-octahydrobenzoxazole derivatives, and their use as antibacterial compounds” (priority 2016, dated 2019).

The test system of assay [1] is Escherichia coli ATCC 25922. Kind of assay: MIC, broth microdilution (CLSI) versus planktonic bacteria. It is filed as cell-based. The note with it: ATCC25922; Escherichia coli ATCC 25922; 16-20 h; mode of three independent experiments; read-out: MIC, Ec ATCC 25922. For orientation: In broth dilution the organism is exposed to a series of concentrations in liquid medium.

Assay [2] deals with E. coli MG1655 S83L. The class given is cell-based, Escherichia coli. The note with it: compared to the isogenic parent strain E. coli MG1655; S83L mutation on DNA gyrase subunit GyrA.
The subject of assay [3] is E. coli MG1655. Nature of the assay: MIC, broth microdilution (CLSI) versus planktonic bacteria. The note with it: Escherichia coli, MG1655, read-out: MIC, Ec MG1655 WT. It is filed as cell-based, Escherichia coli.
For assay [4], the system named is E. coli ATCC BAA-2452. Described as above. It is filed as cell-based. The note with it: Escherichia coli ATCC BAA-2452; 16-20 h; mode of three independent experiments; read-out: MIC, Ec ATCC BAA 2452.
Assay [5] has as its system Pseudomonas aeruginosa ATCC 27853. The assay is described as above. The class given is cell-based. The following applies: ATCC27853; Pseudomonas aeruginosa ATCC 27853; 16-20 h; mode of three independent experiments; read-out: MIC, Pa ATCC 27853.
For assay [6], the system named is Streptococcus pneumoniae ATCC 49619. The description is as above. It is filed as cell-based. The note with it: ATCC49619; Streptococcus pneumoniae ATCC 49619; 16-20 h; mode of three independent experiments; read-out: MIC, Sp ATCC 49619.
In assay [7] the test system is Enterobacter cloacae NCTC 13406. Described as above. The following applies: NCTC13406; Enterobacter cloacae NCTC 13406; 16-20 h; mode of three independent experiments; read-out: MIC, Ecl NCTC 13406. It is filed as cell-based.
The test system of assay [8] is E. coli NCTC 13476. The description is as above. It is filed as cell-based. The note with it: NCTC13476; Escherichia coli NCTC 13476; 16-20 h; mode of three independent experiments; read-out: MIC, Ec NCTC 13476.
Assay [9] concerns Acinetobacter baumannii NCTC 13420. The description is as above. The class given is cell-based. The note with it: NCTC13420; Acinetobacter baumannii NCTC 13420; 16-20 h; mode of three independent experiments; read-out: MIC, Ab NCTC 13420.
The test system of assay [10] is E. coli MG1655 D87G. The class given is cell-based, Escherichia coli. The note with it: compared to the isogenic parent strain E. coli MG1655; D87G mutation on DNA gyrase subunit GyrA.
Assay [11] deals with Acinetobacter baumannii ATCC 19606. Nature of the assay: MIC, broth microdilution (CLSI) versus planktonic bacteria. The class given is cell-based. The note with it: ATCC19606; Acinetobacter baumannii ATCC 19606; 16-20 h; mode of three independent experiments; read-out: MIC, Ab ATCC 19606.
Assay [12] concerns human hepatic cell line (HepG2 ATCC HB-8065). Nature of the assay: Human cell viability assay (CellTiter-Glo). The following applies: Homo sapiens, HepG2, 24 h, read-out: IC50 (μg/mL) HepG2.
For assay [13], the system named is Haemophilus influenzae ATCC 49247. Nature of the assay: MIC, broth microdilution (CLSI) versus planktonic bacteria. The class given is cell-based. The following applies: ATCC49247; Haemophilus influenzae ATCC 49247; 16-20 h; mode of three independent experiments; read-out: MIC, Hi ATCC 49247.
Assay [14] has as its system Staphylococcus aureus ATCC 29213. The description is as above. It is filed as cell-based. The note with it: ATCC29213; Staphylococcus aureus ATCC 29213; 16-20 h; mode of three independent experiments; read-out: MIC, Sa ATCC 29213.
In assay [15] the test system is fluoroquinolone-resistant Enterococcus faecium ATCC 700221. The assay is described as above. The class given is cell-based. The following applies: ATCC700221, 16-20 h, mode of three independent experiments, read-out: MIC, Efm ATCC 700221.
Assay [16] has as its system Enterococcus faecalis ATCC 29212. The description is as above. The class given is cell-based. The note with it: ATCC29212, 16-20 h, mode of three independent experiments, read-out: MIC, Ef ATCC 29212.
Assay [17] relates to Enterococcus faecium ATCC 19434. The assay is described as above. It is filed as cell-based. The note with it: ATCC19434, 16-20 h, mode of three independent experiments, read-out: MIC, Efm ATCC 19434.

In brackets after ≈: the same amount, converted by molar mass. Some results are limits rather than exact numbers.

`COc1ccc2ccc(=O)n(CCN[C@H]3CC[C@H]4[C@H](C3)OC(=O)N4c3ccc4c(n3)NC(=O)CS4)c2n1` [Compound 61, 1-(2-{[(3aS,6S,7aS)-2-oxo-3-{3-oxo-2H,3H,4H-pyrido[3,2-b][1,4]thiazin-6-yl}-octahydro-1,3-benzoxazol-6-yl]amino}ethyl)-7-methoxy-1,2-dihydro-1,8-naphthyridin-2-one]: the MIC in assay [1], in assay [3], in assay [4], in assay [5], in [6] and in assay [7] was less than 1 µg/mL each time. The MIC in assay [8], in [9], in assay [11], in assay [13], in assay [14] and in [15] was less than 1 µg/mL throughout. For the same molecule, the MIC in [16] and in [17] was less than 1 µg/mL throughout. Also, the “Fold increase in MIC, E. coli MG1655 S83L” value in assay [2] was 1 fold. Also, in assay [10], the “Fold increase in MIC, E. coli MG1655 D87G” value is on record as 1 fold. The IC50 in assay [12] was 10 to 100 µg/mL (≈ 19.1 to 191 µM).

`O=C1COc2ccc(N3C(=O)O[C@H]4C[C@@H](NCCn5c(=O)cnc6cc(F)c(F)cc65)CC[C@@H]43)nc2N1` [Compound 34, 1-(2-{[(3aS,6S,7aS)-2-oxo-3-{3-oxo-2H,3H,4H-pyrido[3,2-b][1,4]oxazin-6-yl}-octahydro-1,3-benzoxazol-6-yl]amino}ethyl)-6,7-difluoro-1,2-dihydroquinoxalin-2-one]: the MIC was less than 1 µg/mL in [1]; less than 1 µg/mL in [3]; less than 1 µg/mL in assay [4]; 1 to 10 µg/mL (≈ 1.95 to 19.5 µM) in assay [5]; less than 1 µg/mL in [6]; less than 1 µg/mL in assay [7]. Also, the MIC in [8], in assay [9], in [11], in [13], in assay [14] and in assay [15] was less than 1 µg/mL each time. Further, the MIC in [16] and in assay [17] was less than 1 µg/mL throughout. Besides, the “Fold increase in MIC, E. coli MG1655 S83L” value in assay [2] was 1 fold. Also, the “Fold increase in MIC, E. coli MG1655 D87G” value in assay [10] is listed as 2 fold.

For the molecule `COc1ccc2ccc(=O)n(CCN[C@H]3CC[C@H]4[C@H](C3)OC(=O)N4c3ccc4c(n3)NC(=O)CO4)c2n1` [Compound 29, 1-(2-{[(3aS,6S,7aS)-2-oxo-3-{3-oxo-2H,3H,4H-pyrido[3,2-b][1,4]oxazin-6-yl}-octahydro-1,3-benzoxazol-6-yl]amino}ethyl)-7-methoxy-1,2-dihydro-1,8-naphthyridin-2-one], the MIC in [1], in assay [3], in assay [4], in assay [5], in assay [6] and in assay [7] was less than 1 µg/mL in each case. The MIC in assay [9], in assay [11], in assay [13], in assay [14], in assay [15] and in [16] was less than 1 µg/mL throughout. For the same molecule, the MIC in [17] is less than 1 µg/mL. Further, the “Fold increase in MIC, E. coli MG1655 S83L” value in assay [2] came out at 1 fold. For the same molecule, the “Fold increase in MIC, E. coli MG1655 D87G” value in [10] stood at 2 fold. For the same molecule, the IC50 in assay [12] lay in the range of 10 to 100 µg/mL (≈ 19.7 to 197 µM).

Consider `COc1ccc2ccc(=O)n(CCN[C@H]3CC[C@H]4[C@H](C3)OC(=O)N4c3ccc4c(n3)NC(=O)CO4)c2c1` [Compound 102, 1-(2-{[(3aS,6S,7aS)-2-oxo-3-{3-oxo-2H,3H,4H-pyrido[3,2-b][1,4]oxazin-6-yl}-octahydro-1,3-benzoxazol-6-yl]amino}ethyl)-7-methoxy-1,2-dihydroquinolin-2-one], for which the MIC was less than 1 µg/mL in [1]; less than 1 µg/mL in assay [3]; less than 1 µg/mL in assay [4]; 1 to 10 µg/mL (≈ 1.98 to 19.8 µM) in [5]; less than 1 µg/mL in assay [6]; less than 1 µg/mL in assay [7]. Moreover, the MIC in [8], in assay [9], in assay [11], in [14], in [15] and in [16] was less than 1 µg/mL in each case. The MIC in assay [17] was less than 1 µg/mL. For the same molecule, in assay [2], the “Fold increase in MIC, E. coli MG1655 S83L” value worked out at 2 fold. Also, the “Fold increase in MIC, E. coli MG1655 D87G” value in assay [10] is recorded as 2 fold. Further, the IC50 in assay [12] was in the range of 10 to 100 µg/mL (≈ 19.8 to 198 µM).
